# Patent US4450269A, “Mono-5-substituted-3-chloro-4H-1,2,6-thiadiazin-4-one antifungal agents” (FMC Corporation, priority 1980, dated 1984)
# Structures can show the parent of a compound that is named as a salt. Where two headings read alike, the source gives them in different places.
# Key:
# Pyricularia oryzae [1] = test: whole plant or invertebrate; format: in vivo; conditions: for pest or weed control at 150 ppm: Pyricularia oryzae, foliar, 24 h, read-out: Percent Disease Control, curative, rice blast, 150 ppm, 24 hours after inoculation
# Fusarium solani = test: Mycelial growth test; format: cell-based; conditions: for inhibition at 5 ppm / inhibition at 10 ppm / inhibition at 20 ppm / inhibition at 40 ppm: Fusarium solani, 72 h; for inhibition at 5 ppm / inhibition at 10 ppm / inhibition at 20 ppm / Percent Fungus Growth Inhibition: PS, 72 hours; for inhibition at 5 ppm / inhibition at 10 ppm / inhibition at 20 ppm: read-out: Percent Fungus Growth Inhibition; for inhibition at 40 ppm: read-out: Percent Fungus Growth Inhibition, PS, 40 ppm, 72 hours; for Percent Fungus Growth Inhibition: hydrochloride
# Pyricularia oryzae [2] = format: cell-based; conditions: PO, 48 hours
Compound,pest or weed control at 150 ppm (Pyricularia oryzae [1]),inhibition at 5 ppm (Fusarium solani),inhibition at 10 ppm (Fusarium solani; 10 ppm),inhibition at 20 ppm (Fusarium solani; 20 ppm),inhibition at 40 ppm (Fusarium solani),Spore Germination Rating (Pyricularia oryzae [2]; 1.0 ppm),Spore Germination Rating (Pyricularia oryzae [2]; 2.5 ppm),Spore Germination Rating (Pyricularia oryzae [2]; 10 ppm),Spore Germination Rating (Pyricularia oryzae [2]; 40 ppm),"Percent Disease Control, curative, rice blast (Pyricularia oryzae [1]; 150 ppm, 24 hours after inoculation, hydrochloride)",Percent Fungus Growth Inhibition (Fusarium solani; 10 ppm),Percent Fungus Growth Inhibition (Fusarium solani; 20 ppm),"Spore Germination Rating (Pyricularia oryzae [2]; 2.5 ppm, hydrochloride)"
"O=c1c(Cl)nsnc1Oc1cc(Cl)cc(Cl)c1 [Compound 20, 3-chloro-5-(3,5-dichlorophenoxy)-4H--1,2,6-thiadiazin-4-one]",0%,59%,66%,100%,69%,1 (10-40),0 (0-10),0 (0-10),0 (0-10),–,–,–,–
"O=c1c(Cl)nsnc1Oc1ccccc1Cl [Compound 14, 3-chloro-5-(2-chlorophenoxy)-4H--1,2,6-thiadiazin-4-one]",0%,44%,100%,100%,100%,3 (60-80),0 (0-10),0 (0-10),0 (0-10),–,–,–,–
"Nc1ccc(Oc2nsnc(Cl)c2=O)cc1 [Compound 27, 5-(4-aminophenoxy)-3-chloro-4H--1,2,6-thiadiazine-4-one hydrochloride]",–,–,–,–,–,–,–,–,–,95%,8%,13%,0 (0-10)
"O=c1c(Cl)nsnc1Oc1ccccc1 [Compound 2, 3-chloro-5-phenoxy-4H--1,2,6-thiadiazin-4-one]",0%,53%,65%,76%,100%,3 (60-80),1 (10-40),0 (0-10),0 (0-10),–,–,–,–
"Cc1cc(Cl)c(Oc2nsnc(Cl)c2=O)cc1C [Compound 58, 3-chloro-5-[(2-chloro-4,5-dimethyl)phenoxy]-4H--1,2,6-thiadiazin-4-one]",0%,56%,56%,56%,44%,4 (80-100),0 (0-10),0 (0-10),0 (0-10),–,–,–,–
"CC(=O)Nc1cccc(Oc2nsnc(Cl)c2=O)c1 [Compound 42, 3-[(3-N--acetylamino)-phenoxy]-5-chloro-4H--1,2,6-thiadiazin-4-one]",0%,31%,19%,13%,38%,4 (80-100),4 (80-100),3 (60-80),0 (0-10),–,–,–,–
"O=c1c(Cl)nsnc1Oc1ccccc1Br [Compound 34, 3-chloro-5-(2-bromophenoxy)-4H-1,2,6,-thiadiazin-4-one]",0%,13%,43%,50%,100%,1 (10-40),0 (0-10),0 (0-10),0 (0-10),–,–,–,–
"C[S+]([O-])c1ccc(Oc2nsnc(Cl)c2=O)cc1 (stereo not shown) [Compound 40, 3-chloro-5-[(4-methylsulfinyl)phenoxy]-4H-1,2,6,-thiadiazin-4-one]",0%,5%,16%,26%,53%,4 (80-100),3 (60-80),4 (80-100),1 (10-40),–,–,–,–
"O=c1c(Cl)nsnc1Oc1cccc(Cl)c1Cl [Compound 19, 3-chloro-5-(2,3-dichlorophenoxy)-4H--1,2,6-thiadiazin-4-one]",0%,50%,66%,81%,100%,3 (60-80),0 (0-10),0 (0-10),0 (0-10),–,–,–,–
"Cc1ccc(Oc2nsnc(Cl)c2=O)cc1 [Compound 3, 3-chloro-5-(4-methylphenoxy)-4H--1,2,6-thiadiazin-4-one]",0%,35%,53%,65%,65%,0 (0-10),4 (80-100),0 (0-10),0 (0-10),–,–,–,–
"O=c1c(Cl)nsnc1Oc1cccc(C(F)(F)F)c1 [Compound 44, 3-chloro-5-[(3-trifluoromethyl)phenoxy]-4H--1,2,6-thiadiazin-4-one]",0%,100%,100%,100%,100%,1 (10-40),0 (0-10),0 (0-10),0 (0-10),–,–,–,–
"CC(=O)c1ccc(Oc2nsnc(Cl)c2=O)cc1 [Compound 47, 3-(4-acetylphenoxy)-5-chloro-4H--1,2,6-thiadiazin-4-one]",90%,38%,50%,100%,100%,1 (10-40),0 (0-10),0 (0-10),0 (0-10),–,–,–,–
